Read-outs that look alike come from different tables or passages of the source.

Assay [1] addresses human recombinant BACE1 (Homo sapiens (Human), UniProt P56817). The experiment in a line: In vitro enzymatic BACE1 FRET assay. In kind it is biochemical. The note with it: BACE1 FRET enzyme assay; read-out: IC50 IP (μM) BACE1 enzyme. On the procedure:
These recombinant proteins were further purified using Ni-NTA affinity chromatography (Qiagen). […] This assay is effectively started by the addition of FRET substrate (50 nM) and the combination is incubated for one hour. The FRET assay is terminated by addition of Tris buffer, which raises the pH to neutrality, and the fluorescence is determined. The FRET substrate is a peptide with commercially available fluorophore and quencher, on opposite sides of the BACE cleavage site. Proteolytic cleavage of the FRET substrate releases quenching of fluorescence (excitation 488 nm and emission 590 nm).

Assay [2] relates to Aβ40 in conditioned medium of cells stably expressing Amyloid Precursor Protein (APP). In words: In vitro BACE-1 cell-based assay (Aβ40 sandwich ELISA). The settings on record: read-out: IC50 IP (μM) BACE1 cell. On the procedure:
In Vitro BACE-1 Cell-Based Assay
The cell-based assay measures inhibition or reduction of Aβ40 in conditioned medium of test compound treated cells expressing amyloid precursor protein. Cells stably expressing Amyloid Precursor Protein (APP) were plated at a density of 40K cells/well in 96 well plates (Costar). The cells were cultivated for 24 hours at 37° C. and 5% CO2 in DMEM supplemented with 10% FBS. The test compounds were then added to cells in 10-point dose response concentrations with the starting concentration being either 100 μM or 10 μM. The compounds were diluted from stock solutions in DMSO and the final DMSO concentration of the test compounds on cells was 0.1%. After 24 h of incubation with the test compounds the supernatant conditioned media was collected and the Aβ40 levels were determined using a sandwich ELISA. The IC50 of the compound was calculated from the percent of control or percent inhibition of Aβ40 as a function of the concentration of the test compound.
The sandwich ELISA to detect Aβ40 was performed in 96 well microtiter plates, which were pre-treated with goat anti-rabbit IgG (Pierce). The capture and detecting antibody pair that were used to detect Aβ40 from cell supernatants were affinity purified pAb40 (Biosource) and biotinylated 6E10 (Signet Labs Inc.), respectively. The optimal concentration for the pAb40 antibody was 3 μg/ml in Superblock/TBS (Pierce) that was supplemented with 0.05% Tween 20 (Sigma). […] Cellular supernatants were incubated with the capture antibody for 3 h at 4° C., followed by 3 wash steps in TBS-tween (0.05%). The detecting antibody incubation was for 2 h at 4° C., again followed by the wash steps as described previously. The final readout of the ELISA is Time-Resolved Fluorescence (counts per minute) using Delfia reagents Streptavidin-Europium and Enhancement solutions (Perkin Elmer) and the Victor 2 multilabel counter (Perkin Elmer).
Background: An ELISA detects its analyte on a solid surface through an enzyme-linked reagent.

The target of assay [3] is Recombinant Cat D (Homo sapiens (Human), UniProt P07339). The experiment in a line: In vitro enzymatic Cathepsin D (Cat D) FRET assay. The format is biochemical. The note with it: read-out: IC50 IP (μM) CatD. On the procedure: In Vitro Enzymatic Cathepsin D (Cat D) FRET (Fluorescence Resonance Energy Transfer) Assay
Recombinant Cat D was expressed in CHO cells. The assay buffer for CathepsinD is 0.05 M citrate pH 3.5, 10% DMSO final, 5 mM CHAPS. […] The assays are effectively started by the addition of different FRET substrates (20 nM for Cat D) and the combination is incubated for one hour. The FRET assay is terminated with by addition of Tris buffer, which raises the pH to neutrality, and the fluorescence is determined. The FRET substrate is a peptide with commercially available fluorophore and quencher, on opposite sides of the BACE cleavage site. The Cat D substrate peptide sequence is based on sequence #1 of Table 1 from Gulnik et al. FEBS Letters v413 p 379-384 1997. Proteolytic cleavage of the FRET substrate releases quenching of fluorescence (Cat D excitation 500 nm and emission 580 nm).

Sequence of Recombinant Cat D (P07339 65-412): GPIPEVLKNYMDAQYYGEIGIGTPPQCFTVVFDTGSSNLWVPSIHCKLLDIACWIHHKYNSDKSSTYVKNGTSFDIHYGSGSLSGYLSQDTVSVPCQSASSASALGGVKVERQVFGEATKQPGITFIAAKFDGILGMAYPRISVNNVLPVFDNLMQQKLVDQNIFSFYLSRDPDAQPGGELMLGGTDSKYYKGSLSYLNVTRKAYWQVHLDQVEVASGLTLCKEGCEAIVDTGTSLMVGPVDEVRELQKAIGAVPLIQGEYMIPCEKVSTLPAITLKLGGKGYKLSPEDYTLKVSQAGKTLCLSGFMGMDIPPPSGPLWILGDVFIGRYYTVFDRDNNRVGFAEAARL
Sequence of human recombinant BACE1 (P56817 46-501): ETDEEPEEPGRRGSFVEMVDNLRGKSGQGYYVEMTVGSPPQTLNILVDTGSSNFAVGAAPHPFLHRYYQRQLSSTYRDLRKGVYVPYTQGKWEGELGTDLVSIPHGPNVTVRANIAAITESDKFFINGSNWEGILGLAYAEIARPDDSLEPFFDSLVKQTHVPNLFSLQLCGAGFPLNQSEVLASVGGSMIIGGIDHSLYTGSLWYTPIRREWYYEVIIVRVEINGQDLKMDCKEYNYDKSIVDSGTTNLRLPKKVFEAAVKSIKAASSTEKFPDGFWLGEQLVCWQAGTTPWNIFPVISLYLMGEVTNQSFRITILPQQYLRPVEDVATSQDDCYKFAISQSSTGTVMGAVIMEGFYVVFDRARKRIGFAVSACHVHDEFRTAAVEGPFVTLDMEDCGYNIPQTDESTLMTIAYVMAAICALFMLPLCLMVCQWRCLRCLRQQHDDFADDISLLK

For the molecule `COc1cnc(C(=O)Nc2cc(F)c(F)c([C@@]3(C)N=C(N)S[C@H]4C[C@H]43)c2)cn1` [Example 7, N-(3-((1S,5S,6S)-3-amino-5-methyl-2-thia-4-azabicyclo[4.1.0]hept-3-en-5-yl)-4,5-difluorophenyl)-5-methoxy-2-pyrazinecarboxamide], the IC50 was 0.0141 µM in assay [1], 0.00636 µM in assay [2] (BACE1 cell-based assay) and 719 µM in assay [3] (Cathepsin D FRET enzyme assay).

In the case of `Cc1cc(Cl)cnc1C(=O)Nc1cc(F)c(F)c([C@@]2(C)N=C(N)S[C@H]3C[C@H]32)c1` [Example 8, N-(3-((1S,5S,6S)-3-amino-5-methyl-2-thia-4-azabicyclo[4.1.0]hept-3-en-5-yl)-4,5-difluorophenyl)-5-chloro-3-methyl-2-pyridinecarboxamide], the half-maximal inhibitory concentration (IC50) in assay [1] is 0.00528 µM; in assay [2] (BACE1 cell-based assay), 0.0563 µM; in assay [3] (Cathepsin D FRET enzyme assay), 418 µM.

For `CCOC(=O)[C@]12C[C@H]1[C@@](C)(c1cc(NC(=O)c3ccc(Cl)cn3)cc(F)c1F)N=C(N)S2` [Example 9, (1S,5S,6S)-ethyl 3-amino-5-(5-(5-chloropicolinamido)-2,3-difluorophenyl)-5-methyl-2-thia-4-azabicyclo[4.1.0]hept-3-ene-1-carboxylate], the values for the half-maximal inhibitory concentration (IC50) in assay [1], in assay [2] (BACE1 cell-based assay) and in assay [3] (Cathepsin D FRET enzyme assay) were 0.00679 µM, 0.0232 µM and 366 µM, respectively.

In the case of `C[C@]1(c2cc(NC(=O)c3ccc(C#N)cn3)cc(F)c2F)N=C(N)S[C@H]2C[C@H]21` [Example 14, N-(3-((1S,5S,6S)-3-amino-5-methyl-2-thia-4-azabicyclo[4.1.0]hept-3-en-5-yl)-4,5-difluorophenyl)-5-cyano-2-pyridinecarboxamide], the IC50 in assay [1] stood at 0.0109 µM; in assay [2] (BACE1 cell-based assay) it was 0.00569 µM; in assay [3] (Cathepsin D FRET enzyme assay), 797 µM.

As to `Cc1cc(OC(F)F)cnc1C(=O)Nc1cc(F)c(F)c([C@@]2(C)N=C(N)S[C@H]3C[C@H]32)c1` [Example 15, N-(3-((1S,5S,6S)-3-amino-5-methyl-2-thia-4-azabicyclo[4.1.0]hept-3-en-5-yl)-4,5-difluorophenyl)-5-(difluoromethoxy)-3-methyl-2-pyridinecarboxamide], the half-maximal inhibitory concentration (IC50) in assay [1] amounted to 0.0124 µM; in assay [2] (BACE1 cell-based assay), 0.00994 µM; in assay [3] (Cathepsin D FRET enzyme assay), 506 µM.

As for `COc1cnc(C(=O)Nc2cc(F)c(F)c([C@@]3(CF)N=C(N)S[C@H]4C[C@H]43)c2)cn1` [Example 16, N-(3-((1S,5S,6S)-3-amino-5-(fluoromethyl)-2-thia-4-azabicyclo[4.1.0]hept-3-en-5-yl)-4,5-difluorophenyl)-5-methoxy-2-pyrazinecarboxamide], the figures for the IC50 in assay [1], in assay [2] (BACE1 cell-based assay) and in assay [3] (Cathepsin D FRET enzyme assay) were 0.0145 µM, 0.00908 µM and 875 µM, respectively.

As to `COc1cnc(C(=O)Nc2cc(F)c(F)c([C@@]3(CF)N=C(N)S[C@H]4C[C@H]43)c2)c(C)n1` [Example 17, N-(3-((1S,5S,6S)-3-amino-5-(fluoromethyl)-2-thia-4-azabicyclo[4.1.0]hept-3-en-5-yl)-4,5-difluorophenyl)-5-methoxy-3-methyl-2-pyrazinecarboxamide], the IC50 was determined as 0.026 µM in assay [1], 0.0548 µM in assay [2] (BACE1 cell-based assay) and 863 µM in assay [3] (Cathepsin D FRET enzyme assay).

In the case of `NC1=N[C@](CF)(c2cc(NC(=O)c3ccc(Cl)cn3)cc(F)c2F)[C@@H]2C[C@@H]2S1` [Example 18, N-(3-((1S,5S,6S)-3-amino-5-(fluoromethyl)-2-thia-4-azabicyclo[4.1.0]hept-3-en-5-yl)-4,5-difluorophenyl)-5-chloropicolinamide], the figures for the IC50 in assay [1], in assay [2] (BACE1 cell-based assay) and in assay [3] (Cathepsin D FRET enzyme assay) were 0.0172 µM, 0.0169 µM and 34.3 µM, respectively.

As for `C#C[C@H](C)Oc1cnc(C(=O)Nc2cc(F)c(F)c([C@@]3(C)N=C(N)S[C@@]4(CF)C[C@H]43)c2)c(C)n1` [Example 616, N-(3-((1S,5S,6S)-3-amino-1-(fluoromethyl)-5-methyl-2-thia-4-azabicyclo[4.1.0]hept-3-en-5-yl)-4,5-difluorophenyl)-3-methyl-5-(((1S)-1-methyl-2-propyn-1-yl)oxy)-2-pyrazinecarboxamide], the concentration for half-maximal inhibition (IC50) in assay [2] was found to be 0.0329 µM.

With `C#C[C@H](C)Oc1cnc(C(=O)Nc2cc(F)c(F)c([C@@]3(C)N=C(N)S[C@@]4(COC)C[C@H]43)c2)c(C)n1` [Example 622, N-(3-((1S,5S,6S)-3-amino-1-(methoxymethyl)-5-methyl-2-thia-4-azabicyclo[4.1.0]hept-3-en-5-yl)-4,5-difluorophenyl)-3-methyl-5-(((1S)-1-methyl-2-propyn-1-yl)oxy)-2-pyrazinecarboxamide], in assay [2], the IC50 was determined as 0.0438 µM.

In the case of `C#C[C@H](C)Oc1cnc(C(=O)Nc2ccc(F)c([C@@]3(C)N=C(N)S[C@@]4(C(F)F)C[C@@H]34)c2)c(C)c1` [Example 648, N-(3-((1S,5S,6S)-3-amino-1-(difluoromethyl)-5-methyl-2-thia-4-azabicyclo[4.1.0]hept-3-en-5-yl)-4-fluorophenyl)-3-methyl-5-(((1S)-1-methyl-2-propyn-1-yl)oxy)-2-pyridinecarboxamide], in assay [2], the IC50 is 0.222 µM.

Regarding `C#CCOc1cnc(C(=O)Nc2ccc(F)c([C@@]3(C)N=C(N)S[C@@]4(CF)C[C@H]43)c2)cn1` [Example 822, N-(3-((1S,5S,6S)-3-amino-1-(fluoromethyl)-5-methyl-2-thia-4-azabicyclo[4.1.0]hept-3-en-5-yl)-4-fluorophenyl)-5-(2-propyn-1-yloxy)-2-pyrazinecarboxamide], in assay [2], the IC50 worked out at 0.000378 µM.

For `[2H]C([2H])(C#C)Oc1cnc(C(=O)Nc2cc(F)c(F)c([C@@]3(C)N=C(N)S[C@@]4(COC)C[C@H]43)c2)cn1` [Example 840], in assay [2], the IC50 stood at 0.0006 µM.

As to `C[C@]1(c2cc(NC(=O)c3ccc(Cl)cn3)cc(F)c2F)N=C(N)S[C@@]2(C(=O)O)C[C@H]21` [Example 899, Lithium (1S,5S,6S)-3-amino-5-(5-(5-chloropicolinamido)-2,3-difluorophenyl)-5-methyl-2-thia-4-azabicyclo[4.1.0]hept-3-ene-1-carboxylate], the 50% inhibitory concentration (IC50) in assay [2] came to 2.45 µM.

Regarding `NC1=N[C@](CF)(c2cc(Nc3nccc4nc(OCc5ncco5)cnc34)ccc2F)[C@@H]2C[C@]2(c2c[nH]nn2)S1` [Example 957, N-(3-((1S,5S,6S)-3-amino-5-(fluoromethyl)-1-(1H-1,2,3-triazol-4-yl)-2-thia-4-azabicyclo[4.1.0]hept-3-en-5-yl)-4-fluorophenyl)-2-(1,3-oxazol-2-ylmethoxy)pyrido[3,4-b]pyrazin-5-amine], the IC50 in assay [2] came out at 0.00616 µM.

With `CCOc1cnc(C(=O)Nc2cc(F)c(F)c([C@@]3(C)N=C(N)S[C@@]4(COC)C[C@H]43)c2)cn1` [Example 1038, N-(3-((1S,5S,6S)-3-amino-1-(methoxymethyl)-5-methyl-2-thia-4-azabicyclo[4.1.0]hept-3-en-5-yl)-4,5-difluorophenyl)-5-ethoxy-2-pyrazinecarboxamide], in assay [3], the IC50 came out at 1300 µM.

Regarding `C=CC(C)Oc1cnc(C(=O)Nc2ccc(F)c([C@@]3(C)N=C(N)S[C@@]4(COC)C[C@H]43)c2)cn1` (stereo partly drawn) [Example 1063, N-(3-((1S,5S,6S)-3-amino-1-(methoxymethyl)-5-methyl-2-thia-4-azabicyclo[4.1.0]hept-3-en-5-yl)-4-fluorophenyl)-5-(but-3-en-2-yloxy)pyrazine-2-carboxamide], the IC50 in assay [2] turned out to be 0.1 µM.

By IC50 is commonly meant the concentration needed to halve the response being measured.
